From patent EP2647626A1, “1-Aza-spiro[4.5]dec-3-ene and 1,8-diaza-spiro[4.5]dec-3-ene derivatives as pesticides” (Syngenta Participations AG, priority 2012, dated 2013)
Read-outs that look alike come from different tables or passages of the source.

Columns and labels:
Format in all cases: in vivo
[1] = tested on: cabbage plants; assay: Plant damage evaluation (phytotoxicity) on sprayed cabbage plants, visual 0-100% rating scale; details: concentration of 200ppm; 6 days after treatment; 100% = total damage to plant, 0% = no damage to plant
Protocol: Example B5: Activity against Myzus persicae (green peach aphid)
(§1) (mixed population, feeding/residual contact activity, plant damage evaluation)
(§2) Cabbage plants infested with a mixed population of Myzus persicae were treated with diluted test solutions of the compounds in a spray chamber. 6 days after treatment, samples were checked for mortality and for plant damage (phytotoxicity), visual assessment being made using a 0-100% rating scale (100% = total damage to plant; 0% = no damage to plant).

[2] = tested on: Myzus persicae (green peach aphid); assay: Activity against Myzus persicae, mixed population, feeding/residual contact activity, preventive (sunflower leaf discs); details: foliar, 144 h, read-out: activity
Protocol: Example B1: Activity against Myzus persicae (green peach aphid) (mixed population, feeding/residual contact activity, preventive)
Sunflower leaf discs were placed on agar in a 24-well microtiter plate and sprayed with test solutions. After drying, the leaf discs were infested with an aphid population of mixed ages. After an incubation period of 6 days, samples were checked for mortality and special effects (e.g. phytotoxicity).

[3] = tested on: Myzus persicae (green peach aphid); assay: Activity against Myzus persicae, mixed population, feeding/residual contact activity on sprayed cabbage plants; details: 144 h, read-out: activity against Myzus persicae
Protocol: as §1, §2

[4] = tested on: Myzus persicae (green peach aphid); assay: Activity against Myzus persicae, mixed population, systemic/feeding activity, curative (pea seedling roots in test solution); details: 144 h, read-out: activity
Source text: Example B2: Activity against Myzus persicae (green peach aphid) (mixed population, systemic/feeding activity, curative)
Roots of pea seedlings, infested with an aphid population of mixed ages, were placed directly in the test solutions. 6 days after introduction, samples were checked for mortality and special effects on the plant.

[5] = tested on: Tetranychus urticae (two-spotted spider mite); assay: Activity against Tetranychus urticae, mixed population, feeding/residual contact activity, preventive (bean leaf discs); details: foliar, 192 h, concentration of 400ppm, egg, larval and adult mortality checked 8 days later, bean leaf discs sprayed
Source text: Example B4: Activity against Tetranychus urticae (two-spotted spider mite)
(mixed population, feeding/residual contact activity, preventive)
Bean leaf discs on agar in 24-well microtiter plates were sprayed with test solutions. After drying, the leaf discs were infested with mite populations of mixed ages. 8 days later, discs were checked for egg mortality, larval mortality, and adult mortality.

[6] = concentration of 400ppm, mortality checked after 6 days, sunflower leaf discs sprayed
[7] = concentration of 400ppm, mortality checked 6 days after introduction, roots of pea seedlings in test solution
[8] = concentration of 200ppm, mortality 6 days after treatment, cabbage plants, spray chamber

| Structure (SMILES) | damage to cabbage plants [1] [%] | mortality at 400 ppm [2] [%] | mortality at 200 ppm [3] [%] | mortality at 400 ppm [4] [%] | mortality at 400 ppm [2, 6] [%] | mortality at 400 ppm [4, 7] [%] | mortality at 400 ppm [5] [%] | mortality at 200 ppm [3, 8] [%] |
| --- | --- | --- | --- | --- | --- | --- | --- | --- |
| CON1CCC2(CC1)C(=O)C(c1c(C)cc(Cl)cc1C)C(=O)N2c1ccccc1 (centres unmarked) [P2.5, 3-(4-chloro-2,6-dimethyl-phenyl)-8-methoxy-1-phenyl-1,8-diaza-spiro[4.5]decane-2,4-dione] | ≤ 10 | > 80 | ≥ 80 | > 80 | – | – | – | – |
| CCOC(=O)OC1=C(c2c(C)cc(Cl)cc2C)C(=O)N(c2ccccc2)C12CCN(OC)CC2 [P1.5] | ≤ 10 | – | ≥ 80 | – | > 80 | > 80 | – | – |
| CON1CCC2(CC1)C(=O)C(c1c(C)cc(C)cc1C)C(=O)N2c1ccccc1 (centres unmarked) [P2.4] | ≤ 10 | – | ≥ 80 | – | > 80 | > 80 | > 80 | – |
| CON1CCC2(CC1)C(=O)C(c1cc(C)ccc1C)C(=O)N2c1ccccc1 (centres unmarked) [P2.2] | ≤ 10 | – | ≥ 80 | – | – | – | – | – |
| CCOC(=O)OC1=C(c2c(C)cc(C)cc2C)C(=O)N(c2ccccc2)C12CCN(OC)CC2 [P1.4] | – | – | – | – | – | > 80 | – | – |
| CCOC(=O)OC1=C(c2c(C)cc(Br)cc2C)C(=O)N(c2ccccc2)C12CCN(OC)CC2 [P1.3] | ≤ 10 | – | ≥ 80 | – | > 80 | > 80 | > 80 | – |
| CON1CCC2(CC1)C(=O)C(c1c(C)cc(Br)cc1C)C(=O)N2c1ccccc1 (centres unmarked) [P2.3] | ≤ 10 | – | ≥ 80 | – | > 80 | > 80 | > 80 | – |
| CCOC(=O)OC1=C(c2cc(C)ccc2C)C(=O)N(c2ccccc2)[C@]12CC[C@@H](OC)CC2 [P1.1, carbonic acid cis-3-(2,5-dimethyl-phenyl)-8-methoxy-2-oxo-1-phenyl-1-aza-spiro[4.5]dec-3-en-4-yl ester ethyl ester] | – | – | – | – | – | – | – | ≥ 80 |
| CO[C@H]1CC[C@@]2(CC1)C(=O)C(c1cc(C)ccc1C)C(=O)N2c1ccccc1 (relative stereo) [P2.1, cis-3-(2,5-dimethyl-phenyl)-8-methoxy-1-phenyl-1-aza-spiro[4.5]decane-2,4-dione] | – | – | – | – | – | – | – | ≥ 80 |
| CCOC(=O)OC1=C(c2cc(C)ccc2C)C(=O)N(c2ccccc2)C12CCN(OC)CC2 [P1.2] | ≤ 10 | – | ≥ 80 | – | – | > 80 | > 80 | – |
